Reference: patent US8580857B2 (priority 2001, dated 2013)
Marks after values point to notes of the source that are not given here. Blank lines part the entries; values can stand above or below the molecule they belong to.

Legend:
[1] = tested on: human prostate PC3 xenograft tumors; test: Antitumor activity in subcutaneous human prostate PC3 xenograft (tumor size over time); type: in vivo, immunodeficient mice
Protocol: The dose of paclitaxel was 15 mg/kg and was given twice weekly for three weeks. […] Example 1 further expounds on FIG. 1.
The relevant tumor model used was human prostate PC3 xenograft implanted subcutaneously in immunodeficient mice. […] The dose of paclitaxel was 15 mg/kg and was given twice weekly for three weeks.

[2] = tested on: human prostate PC3 xenograft tumors; test: Non-apoptotic and apoptotic cell counts in histologic sections of residual PC3 tumors; type: in vivo, immunodeficient mice; settings: mean ± SD
Protocol: Because a post-treatment residual tumor consisted of apoptotic and non-apoptotic cells, the effects of different treatments on the fractions of non-apoptotic (and therefore not committed to death) and apoptotic (dead or committed) cells were evaluated. Briefly, residual tumors were removed from animals after termination of treatment, and histologic tumor sections were prepared. Tumor sections were examined microscopically under 400× magnification. For each tumor, at least 4 sections were evaluated. Apoptotic cells were identified by their characteristic morphologies, i.e., presence of apoptotic bodies, condensed nuclei and fragmented nuclei.

[3] = Phase I trial, toxicity of low dose suramin with paclitaxel and carboplatin; type: in vivo, human
Source text: Fifteen patients, with metastases to pleura, pericardium, adrenals, lymph nodes, liver, bone, and/or brain, were enrolled in the phase I trial. This group includes 4 stage IIIb and 11 stage IV patients. […] All patients were evaluable for pharmacokinetics and toxicity. […] Accordingly, it was not necessary to administer replacement steroid therapy to patients who received low dose suramin. This is contrary to the case where replacement steroid therapy was routinely given to patients who received high dose suramin (Dorr and Von Hoff).

clinical = type: in vivo, human
Source text: This method was then verified prospectively in three additional patients (see Example IV).
However, the CL was lower in females compared to males.

[4] = Prospective verification of the PBPK-based dosing method, plasma concentrations; type: in vivo, human; settings: for concentration at 48 h: human, plasma, intravenous
Protocol: Three additional non-small cell lung cancer patients were treated using the dose calculated by the PBPK-based method.

[5] = Literature, cited from earlier work
cell cycle = settings: constant concentrations of above 50 μM maintained for at least one or two days; cited from earlier work
[6] = tested on: acidic and basic fibroblast growth factors (aFGF and bFGF); settings: tumor cells, aFGF and bFGF induced resistance; cited from earlier work
[7] = Population-based pharmacokinetic (PBPK) analysis of low dose suramin, NONMEM
Source text: The first step is to define the appropriate error model for the pharmacokinetic parameters of interest. […] Only the covariates whose elimination results in significant deterioration in model performance are included in the final model (referred to as Population Model).
The PBPK for a one-compartment model depicting plasma concentrations as a function of clearance (CL) and volume of distribution (V) is as follows: • where Cij is the predicted plasma concentration at a particular time time i for a patient j.
Error functions were used to describe the random deviations between model-predicted and observed data for individual pharmacokinetic parameters. Because the objective was to identify the dose, which can be calculated based on CL and V, the analysis focused on these two parameters. […] CLj=CL^typ*(1+ηCL) Eq. 2 Vj=V^typ*(1+ηV) Eq. 3 where ηCL and ηV are random values normally distributed around a mean of zero with a variance of ω^2.
Multiple plasma concentration-time data points were used in PBPK analysis. These time points were 18, 24, 48 and 72 hours after the first treatment, 72 hours and immediately prior to next treatment, and 48 and 72 hours after second and subsequent treatments. The relationship between observed plasma concentrations and PBPK-predicted values (residual variability) is depicted by Equation 4. Yij=Cij*(1+ε1ij) Eq. 4 where Yij and Cij are the observed and predicted concentrations of the j^th individual at the i^th sampling time. ε1ij is the residual errors with a mean of zero and a variance of σ^2. The above equations used an error function in the form of (1+error), which represents the proportional error model where the coefficient of variation is constant and independent of the size of the fixed effect parameter. […] Model Building: Identification of Significant Covariates
The contribution of ten covariates to the inter-individual variability in CL and V was studied. These covariates were age, gender, weight, ideal body weight, height, body surface area (BSA), creatinine concentration, creatinine clearance (CrCL), and serum albumin concentration. Linear regression analysis was used to examine the relationships between covariates and pharmacokinetic parameters in individual patients.
To determine whether a covariate should be incorporated into the model, the log likelihood ratio test was used and the chi-square χ^2 values were calculated by taking the difference in the objective function values of the models, obtained with or without adding the candidate covariate.
CL^typ=(θ1*BSA+θ2*CrCL+θ3)*(1−θ4) Eq. 7 V^typ=θ5*BSA^2+θ6 Eq. 8 […]
To obtain estimates for k^typ, the k values for individual patients were calculated by substituting their corresponding BSA values into Equations 13 and 14.

in vivo = settings: mouse
[8] = high dose suramin regimen 200 mg/kg then 5 x 130 mg/kg over three weeks, combination: plus paclitaxel 15 mg/kg
[9] = low dose suramin regimen 10 mg/kg twice weekly for three weeks, combination: plus paclitaxel 15 mg/kg
[10] = Patient 1, cycle 1, BSA 1.45, dose 263 mg
[11] = Patient 1, cycles 3 to 6, dose 151-156 mg
[12] = Patient 2, cycle 1, BSA 1.67, dose 210 mg
[13] = Patient 2, cycles 2 to 6, dose 227-257 mg
[14] = Patient 3, cycle 1, BSA 1.83, dose 230 mg
[15] = high dose suramin >2,000 mg per m^2
[16] = Population Model, first 12 patients
[17] = paclitaxel alone 15 mg/kg twice weekly for three weeks

Structure (SMILES): Cc1ccc(C(=O)Nc2ccc(S(=O)(=O)O)c3cc(S(=O)(=O)O)cc(S(=O)(=O)O)c23)cc1NC(=O)c1cccc(NC(=O)Nc2cccc(C(=O)Nc3cc(C(=O)Nc4ccc(S(=O)(=O)O)c5cc(S(=O)(=O)O)cc(S(=O)(=O)O)c45)ccc3C)c2)c1 [suramin]
antitumor effect (tumor growth) ([1]; high dose suramin regimen: loading dose 200 mg/kg, then 5 doses of 130 mg/kg over three weeks, combination: plus paclitaxel 15 mg/kg twice weekly for three weeks): slower tumor growth
tumor size, % of the initial tumor size ([1]; low dose suramin regimen: 10 mg/kg twice weekly for three weeks, combination: plus paclitaxel 15 mg/kg twice weekly for three weeks): about 800%
Number of apoptotic cells in a 400x field [2, 8]: 22 ± 9
Number of non-apoptotic cells in a 400x field [2, 8]: 19 ± 9
Number of apoptotic cells in a 400x field [2, 9]: 21 ± 16
Number of non-apoptotic cells in a 400x field [2, 9]: 62 ± 44
dose-limiting toxicity ([3]; low dose suramin with paclitaxel 200 mg/m^2 and carboplatin AUC 6 every three weeks, fifteen patients): No dose-limiting toxicity
adrenal insufficiency ([3]; patients receiving the low dose suramin treatment): no adrenal insufficiency
half-life (clinical; both sexes, human, in vivo, Alpha half-life): 4.4 h
half-life (clinical; both sexes, human, in vivo, Beta half-life): 264 h
maximum inter-individual variability of clearance (CL) (clinical; both, human, in vivo): 182%
inter-individual variability of clearance (CL) (clinical; female, human, in vivo): 2%
half-life (clinical; female, human, in vivo, Alpha half-life): 4.6 ± 2 h
half-life (clinical; female, human, in vivo, Beta half-life): 336 h
area under the terminal phase as share of the total area-under-curve (clinical; human, in vivo): ~90%
concentration at 48 h (clinical; human, in vivo): > 10 µM
maximum inter-subject variability in the steady state volume of distribution (Vss) (clinical; human, in vivo): 153%
inter-individual variability of clearance (CL) (clinical; male, human, in vivo): 13%
half-life (clinical; male, human, in vivo, Alpha half-life): 4.3 ± 0.6 h
half-life (clinical; male, human, in vivo, Beta half-life): 240 h
Concentration, Post-paclitaxel [4, 10]: 33.95 µM
Concentration, Pre-dose [4, 10]: 0.00 µM
Concentration, Post-paclitaxel [4, 11]: 21.5 to 26.3 µM
Concentration, Pre-dose [4, 11]: 1.87 to 3.19 µM
Concentration, Post-paclitaxel [4, 12]: 40.39 µM
Concentration, Pre-dose [4, 12]: 0.00 µM
Concentration, Post-paclitaxel [4, 13]: 26.7 to 28.5 µM
Concentration, Pre-dose [4, 13]: 2.65 to 3.81 µM
Concentration, Post-paclitaxel [4, 14]: 36.02 µM
Concentration, Pre-dose [4, 14]: 0.00 µM
maximum concentrations after administration of paclitaxel ([4]; all 13 treatments in three patients, PBPK-calculated dose, two-thirds / one-third split): below 50 μM
concentration at 48 h ([4]; Patient 1, cycle 1, BSA 1.45, dose 263 mg, read-out: Concentration, 48 hours): 13.9 µM
concentration at 48 h ([4]; Patient 1, cycles 3 to 6, dose 151-156 mg, read-out: Concentration, 48 hours): 10.2 to 11.5 µM
concentration at 48 h ([4]; Patient 2, cycle 1, BSA 1.67, dose 210 mg, read-out: Concentration, 48 hours): 15.5 µM
concentration at 48 h ([4]; Patient 2, cycles 2 to 6, dose 227-257 mg, read-out: Concentration, 48 hours): 12.9 to 15.6 µM
concentration at 48 h ([4]; Patient 3, cycle 1, BSA 1.83, dose 230 mg, read-out: Concentration, 48 hours): 19.4 µM
concentration at 48 h ([4]; all 13 treatments in three patients, PBPK-calculated dose, two-thirds / one-third split, read-out: 48-hour plasma concentrations): > 10 µM
Alpha half-life [5, 15]: 5.5 ± 1.7 h
Beta half-life [5, 15]: 98.4 ± 52.8 h
Gamma half-life [5, 15]: 1870 ± 1100 h
Total body clearance [5, 15]: 0.01 ± 0.004 l/hr/m^2
Cumulative AUC ([5]; high dose suramin, total dose >2,000 mg per m^2 per 3-week interval, calculated as 200 μg/ml x 3 weeks from the reference): 101* mg-hr/ml
effect on cell cycle (cell cycle): induce cell cycle arrest
concentrations of suramin that overcome FGF-mediated resistance to chemotherapy [6]: less than 50 μM
k^typ (elimination rate constant), Estimate ([7]; Female): 0.0022 h⁻¹
k^typ (elimination rate constant), Estimate ([7]; Male): 0.0026 h⁻¹
θ1 (effect of BSA on CL^typ), Estimate [7, 16]: 26.2 mL/h * m^2
θ5 (effect of BSA^2 on V^typ), Estimate [7, 16]: 5.13 L/m^4

Structure (SMILES): N.N.O=C([O-])C1(C(=O)[O-])CCC1.[Pt+2] [carboplatin]
areas-under-plasma concentration-time curves attained in the first 48 hours after drug administration (clinical; first six patients): > 99%

areas-under-plasma concentration-time curves attained in the first 48 hours after drug administration (clinical; human, in vivo): > 92%
concentration at 5 min (in vivo): ~7000 ng/mL
concentration at 5 h (in vivo): 200 ng/mL
concentration at 6 h (in vivo): < 100 ng/mL
Structure (SMILES): CC(=O)O[C@H]1C(=O)[C@@]2(C)[C@H]([C@H](OC(=O)c3ccccc3)[C@]3(O)C[C@H](OC(=O)[C@H](O)[C@@H](NC(=O)c4ccccc4)c4ccccc4)C(C)=C1C3(C)C)[C@]1(OC(C)=O)CO[C@@H]1C[C@@H]2O [Paclitaxel, paclitaxel]
antitumor effect (tumor growth) ([1]; paclitaxel alone 15 mg/kg twice weekly for three weeks, p<0.05 vs control): suppressed tumor growth
Number of apoptotic cells in a 400x field [2, 17]: 30 ± 17
Number of non-apoptotic cells in a 400x field [2, 17]: 14 ± 10
